{"source": "patent US11442059B2", "about": "“Method for treating a chronic itch condition by administering small molecule MrgprX4 antagonists” (The Johns Hopkins University, priority 2017, dated 2022)", "key": {"mice": {"system": "mice", "test": "Acute itch behaviour after injection (scratching bouts)", "assay_type": "in vivo, mouse", "conditions": "for itch responses in WT versus Cluster KO animals: injection at nape or cheek; for scratching / itch elicited by injection: WT mice; for itch elicited in Cluster KO animals: Cluster KO mice"}, "MrgprA1": {"target": "T1, MrgprA1 (Mus musculus, UniProt Q91WW5)", "T1 construct": "expressed in transfected cells; whole cells or crude membrane fraction", "T1 sequence (Q91WW5 1-304)": "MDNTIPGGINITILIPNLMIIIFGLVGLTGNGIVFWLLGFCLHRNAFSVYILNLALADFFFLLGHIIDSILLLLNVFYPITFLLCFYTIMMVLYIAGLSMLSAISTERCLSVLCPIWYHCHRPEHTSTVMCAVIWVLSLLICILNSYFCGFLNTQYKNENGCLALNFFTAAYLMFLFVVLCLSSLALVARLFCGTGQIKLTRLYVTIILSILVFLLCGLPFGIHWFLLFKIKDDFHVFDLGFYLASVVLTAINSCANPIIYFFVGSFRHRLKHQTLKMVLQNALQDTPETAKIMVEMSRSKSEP", "test": "Fura 2-AM calcium imaging, EC50 and IC50 determinations, MRGPRA1 HEK293 cells", "assay_type": "cell-based", "conditions": "10 μM pre-incubated 30 minutes; 50 μM bilirubin", "procedure": "(§1) Cells were imaged in calcium imaging buffer (CIB; 10 mM HEPES, 1.2 mM NaHCO3, 130 mM NaCl, 3 mM KCl, 2.5 mM CaCl2, 0.6 mM MgCl2, 20 mM glucose, and 20 mM sucrose at pH 7.4 and 290-300 mOsm). To monitor changes in intracellular [Ca^2+] ([Ca^2+]i), cells were loaded with either Fura 2-AM (HEK293 cells) or Fluo 4-AM (DRG neurons and mast cells) for 30 min in the dark at 37° C. in CIB just prior to imaging. With Fura 2-AM, emission at 510 nm was monitored from excitation at both 340 nm and 380 nm. With Fluo 4-AM, emission at 520 nm was monitored from excitation at 488 nm. Cells were identified as responding if the intracellular [Ca^2+] rose by either 50% compared to baseline or 50% compared to the [Ca^2+]i change assayed during addition of 50 mM KCl (neurons only). Damaged, detached, high-baseline, and motion-activated cells were excluded from analysis.\n(§2) In initial screens, HEK293 cells stably expressing the murine G-protein alpha-subunit Gα15, a unique Gα protein that non-selectively couples a large variety of GPCRs to phospholipase C^30, were plated on poly-D-lysine-coated coverslips and transiently transfected with constructs encoding the MRGRPR of interest. 12-24 h later, cells were loaded with the Fura 2-AM. Unless otherwise specified, compounds were perfused into the imaging chamber for approximately thirty seconds after a baseline period was established. Response was then monitored at 5 s intervals for an additional 60 s.\n(§3) HEK293 cells stably expressing either MRGPRA1, MRGPRX4, and MRGRPC11 were seeded in poly-D-lysine-coated 96-well plates at 10,000 cells/well. Cells were loaded with Fura 2-AM, washed twice, and maintained in CIB. Haem metabolites were freshly dissolved in DMSO in dim light and then diluted into a buffer comprised of 20 mM Tris and 150 mM NaCl at pH 8.8. Potential changes in pH were evaluated prior to each experiment. EC50 values were determined from dose-responses performed in triplicate, repeated 2-4 times. To determine potential antagonism by QWF against bilirubin, cells were treated with varying doses of QWF for 1 min in CIB prior to application of agonist."}, "MRGPRX4 [1]": {"target": "T2, MRGPRX4 (Homo sapiens, UniProt Q96LA9)", "T2 sequence (Q96LA9 whole entry)": "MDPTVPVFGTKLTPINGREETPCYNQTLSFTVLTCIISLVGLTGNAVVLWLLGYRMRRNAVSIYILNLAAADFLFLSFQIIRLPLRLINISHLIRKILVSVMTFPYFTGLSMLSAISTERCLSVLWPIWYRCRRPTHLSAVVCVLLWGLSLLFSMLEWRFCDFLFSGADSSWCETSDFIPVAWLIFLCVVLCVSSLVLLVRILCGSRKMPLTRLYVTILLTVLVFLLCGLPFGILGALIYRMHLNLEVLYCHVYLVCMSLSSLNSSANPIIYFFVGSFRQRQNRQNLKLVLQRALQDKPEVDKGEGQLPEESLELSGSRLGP", "test": "Fura 2-AM calcium imaging, EC50 determinations, MRGPRX4 HEK293 cells", "assay_type": "cell-based", "parameters": "expressed in transfected cells; whole cells or crude membrane fraction", "conditions": "10 μM pre-incubated 30 minutes; 50 μM bilirubin", "procedure": "as §1, §2\nas §3, with “To determine potential antagonism by QWF against bilirubin, cells were treated with varying doses of QWF for 1 min in CIB prior to application of agonist.” left out"}, "129S1/SvImJ mice": {"system": "129S1/SvImJ mice", "test": "SJS/TEN mouse model (daily oral gavage of causative drug)", "assay_type": "in vivo", "conditions": "mouse, in vivo", "procedure": "Eight-to-ten week old male mice were orally gavaged with either causative drugs (LTG, allopurinol, oxcarbazepine) suspended in saline or saline once daily. The dosage was based on milligrams per kilogram of animal's body weight as indicated (for example, LTG 50 mg kg^−1 body weight). Skin, eyes, and mucosa, survival, body weight, physical and gross appearances (particularly on the eyes, mucosa and skins) were monitored every day.\nThe animals were deeply anesthetized with pentobarbital and transcardially perfused with 20 ml 0.1 M cold PBS (pH 7.4) followed with 25 ml of cold 4% paraformaldehyde (PFA). Paw skin, eyelid, spleen, lymph nodes were dissected out. postfixed in 4% PFA for more than two hours, and cryoprotected in a 20% followed by 30% sucrose solution for 24 hours each at 4° C. Tissue samples were embedded in the optimal cutting temperature (OCT) and frozen before being serially cut into 20 μm sections and placed onto slides. Hematoxylin and eosin (H&E) staining was performed using standard procedures according to the manufacturer's instruction VITROVIEW™ H&E Stain Kit). To quantify amount of apoptotic cells, terminal deoxynucleotidyl transferase dUTP nick end labeling (TUNEL) assay, a method for detecting DNA fragmentation that results from apoptotic cells by labeling the terminal end of nucleic acids, was performed by following the protocol of Apo-BrdU DNA Fragmentation Assay Kit (Biovision). To estimate the total cell number in tissue, all nuclei were stained with propidium iodide. Digital photographs were captured under confocal fluorescent microscopy at x200 magnification (Zeiss LSM 700). The number of TUNEL-positive nuclei were counted and reported as a percentage over the number of total nuclei observed in the skin's epidermis layer."}, "MRGPRX4 [2]": {"target": "T2, MRGPRX4", "test": "MrgprX4 inverse agonist assay (HTRF IP-One inositol phosphate)", "assay_type": "cell-based", "parameters": "expressed in transfected cells", "conditions": "HEK293 cells stably expressing recombinant human MrgprX4, final assay concentration typically 10 μM", "procedure": "(§4) Intracellular inositol phosphate levels were determined using a 384-well homogenous time-resolved fluorescence assay (HTRF IP-One®, CisBio International, Bagnols/Ceze, France, Cat #62IPAPEJ) as described by the manufacturer's one-step protocol. Briefly, HEK293 cells stably expressing recombinant human MrgprX4 were harvested and suspended in phenol-red free OptiMEM (ThermoFisher) and plated into 384-well assay plates (Perkin Elmer, Proxiplate-Plus® Cat #6008280) at 15,000 cells/well in a volume of 10 μL/well. These cell plates were then incubated overnight at 37° C. in a humidified CO2 incubator. Test compounds were dissolved in DMSO and were further diluted in Assay Buffer (Tris.HCl 40 mM, NaCl 300 mM, LiCl 350 mM, pH 8) and added to the cells (2 μL addition, final assay concentration typically 10 μM). In this configuration, the assay can detect agonists and inverse agonists. For detection of antagonists, test compound addition was followed by addition of bilirubin (2 μL addition, final assay concentration 100 μM). Regardless of the assay format (agonist/inverse agonist vs. antagonist) plates were then incubated for 1 h, at 37° C., followed by 30 minutes at room temperature. Lysis/detection reagents (6 uL/well) were then added and plates incubated for 1 h at room temperature before reading on an HTRF compatible reader such as a Perkin Elmer EnVision® or BMG Pherastar®."}, "MRGPRX4 [3]": {"target": "T2, MRGPRX4", "test": "MrgprX4 antagonist assay vs bilirubin (HTRF IP-One inositol phosphate)", "assay_type": "cell-based", "parameters": "expressed in transfected cells", "conditions": "blockade of bilirubin (100 μM) induced signal; test compound typically 10 μM", "procedure": "as §4"}}, "note": "“Also recorded” adds a separate entry of the source. Starred links: 1 amine or outer side, 2 acyl side, 3 side chain; linkers in the order of their positions; H or OH if unused. Positions of bridges follow the written chain, without caps; N, C: chain ends. Non-standard residues stand in square brackets, D forms with d. Residues, ends and D or L forms follow the SMILES beside them. X1 = CC(=O)NC(C(=O)OC(C(C)C)C(N[*:1])C(=O)[*:2])C(O)C(C)C; PhLac = O=C(O)[CH](O)Cc1ccccc1; NMeT = CN[CH](C(=O)O)[CH](C)O; NMeA = CN[CH](C)C(=O)O; NMeDha = C=C(NC)C(=O)O", "data": [{"molecule": "C[C@@H](NC(=O)[C@@H](N)Cc1ccc(O)cc1)C(=O)NCC(=O)N(C)[C@@H](Cc1ccccc1)C(=O)NCCO", "note": "[DAMGO]", "values": [{"measurement": "itch responses in WT versus Cluster KO animals", "setting": "mice", "value": "comparable itch responses"}]}, {"molecule": "C=C1C(=O)NC(C)C(=O)N(C)C(C)C(=O)NC(C(OC(=O)C(NC(C)=O)C(O)C(C)C)C(C)C)C(=O)N(C)C(C(C)OC)C(=O)OC(C)C(NC(C)=O)C(=O)OC(Cc2ccccc2)C(=O)N1C", "note": "(stereo not shown) [YM-254890] (Ac-T[PhLac][NMeDha]A[NMeA][X1][NMeT](Me); ester 1-C; configuration not given here)", "values": [{"measurement": "effect on bilirubin-induced calcium responses, MRGPRA1", "setting": "MrgprA1", "value": "abolished"}, {"measurement": "effect on bilirubin-induced calcium responses, MRGPRX4", "setting": "MRGPRX4 [1]", "value": "inhibited"}]}, {"molecule": "Oc1ncnc2[nH]ncc12", "note": "[allopurinol]", "values": [{"measurement": "eye manifestation", "setting": "129S1/SvImJ mice", "value": "can also induce eye manifestation"}]}, {"molecule": "C=CC1=C(C)/C(=C/C2=NC(=C\\c3[nH]c(/C=C4\\NC(=O)C(C)=C4C=C)c(C)c3CCC(=O)O)/C(CCC(=O)O)=C2C)NC1=O", "note": "[biliverdin]", "values": [{"measurement": "scratching / itch elicited by injection", "setting": "mice", "value": "did not induce scratching"}]}, {"molecule": "O=C(O)COCCN1CCN(C(c2ccccc2)c2ccc(Cl)cc2)CC1", "note": "(stereo not shown) [cetirizine]", "values": [{"measurement": "effect on bilirubin-induced scratching", "setting": "mice; 30 mg/kg, i.p., thirty minutes prior to bilirubin", "value": "failed to temper scratching behavior"}]}, {"molecule": "Cc1c(C(=O)NCc2ccccc2C(F)(F)F)ncn1Cc1ccc(Cl)cc1", "note": "[compound 1]", "values": [{"measurement": "Inverse Agonist Activity", "setting": "MRGPRX4 [2]", "value": "++++ (an activity of at least 3 standard deviations below baseline)"}, {"measurement": "Antagonist Activity", "setting": "MRGPRX4 [3]", "value": "++++ (a blockade of bilirubin induced signal of at least 85%)"}]}, {"molecule": "Cc1nc(-c2ccnn2Cc2ccc(Cl)cc2)[nH]c1-c1ccccc1", "note": "[compound 2]", "values": [{"measurement": "Inverse Agonist Activity", "setting": "MRGPRX4 [2]", "value": "++++ (an activity of at least 3 standard deviations below baseline)"}, {"measurement": "Antagonist Activity", "setting": "MRGPRX4 [3]", "value": "++++ (a blockade of bilirubin induced signal of at least 85%)"}]}, {"molecule": "O=C(NCc1cc2ccccc2[nH]1)c1cc(-c2ccccn2)nc2ccc(Br)cc12", "note": "[compound 3]", "values": [{"measurement": "Inverse Agonist Activity", "setting": "MRGPRX4 [2]", "value": "+++ (an activity of from 2 standard deviations to less than 3 standard deviations below baseline)"}, {"measurement": "Antagonist Activity", "setting": "MRGPRX4 [3]", "value": "++++ (a blockade of bilirubin induced signal of at least 85%)"}]}, {"molecule": "Nc1nc2ccccc2n1CCOc1ccccc1Cl", "note": "[compound 4]", "values": [{"measurement": "Inverse Agonist Activity", "setting": "MRGPRX4 [2]", "value": "+++ (an activity of from 2 standard deviations to less than 3 standard deviations below baseline)"}, {"measurement": "Antagonist Activity", "setting": "MRGPRX4 [3]", "value": "+++ (a blockade of bilirubin induced signal of from 70% to less than 85%)"}]}, {"molecule": "C=CC1=C(C)c2cc3[n-]c(cc4[n-]c(cc5nc(cc1n2)C(C)=C5C=C)c(C)c4CCC(=O)O)c(CCC(=O)O)c3C.O.[Fe+2]", "note": "[hematin]", "values": [{"measurement": "itch elicited in Cluster KO animals", "setting": "mice", "value": "absent"}, {"measurement": "scratching / itch elicited by injection", "setting": "mice", "value": "elicited itch"}]}, {"molecule": "CN1CC[C@]23c4c5ccc(O)c4O[C@H]2[C@@H](O)C=C[C@H]3[C@H]1C5", "note": "[morphine]", "values": [{"measurement": "itch responses in WT versus Cluster KO animals", "setting": "mice", "value": "comparable itch responses"}]}, {"molecule": "CCC1=C(C)C(Cc2[nH]c(Cc3[nH]c(CC4NC(=O)C(C)=C4CC)c(C)c3CCC(=O)O)c(CCC(=O)O)c2C)NC1=O", "note": "(stereo not shown) [urobilinogen]", "values": [{"measurement": "scratching / itch elicited by injection", "setting": "mice", "value": "able to stimulate scratching behavior"}]}, {"molecule": "FMRF: an MRGPRA1 agonist", "values": [{"measurement": "scratching / itch elicited by injection", "setting": "mice", "value": "caused itch"}]}, {"molecule": "lysophosphatidic acid [LPA]", "values": [{"measurement": "itch responses in WT versus Cluster KO animals", "setting": "mice", "value": "comparable itch responses"}]}, {"molecule": "stercobilin", "values": [{"measurement": "itch elicited in Cluster KO animals", "setting": "mice", "value": "absent"}, {"measurement": "scratching / itch elicited by injection", "setting": "mice", "value": "elicited itch; also recorded: able to stimulate scratching behavior"}]}]}
